Nine compounds from PubChem BioAssay (NCI) can be followed below.

Structures are written as SMILES.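 Test compounds were applied to cells in 96-well plates for 48 hours at 5 doses. The concentration for 50% growth inhibition is given as GI50. TGI denotes the concentration required for complete inhibition of growth.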 A value given as a limit tells only on which side of the number the result lay.

What all share (assay): inhibition of tumour cell growth, NCI panel, 48 h
For experiment [1], the system named is CAKI-1 renal.
Experiment [2] relates to K-562 leukemia.
Experiment [3] concerns OVCAR-3 ovarian.
Experiment [4] deals with MALME-3M melanoma.
The subject of experiment [5] is SF-295 CNS.
The subject of experiment [6] is M19-MEL melanoma.
Experiment [7] has as its system NCI-H522 lung.
Experiment [8] deals with HOP-18 NSCLC.
The subject of experiment [9] is DLD-1 colon.
The subject of experiment [10] is HT29 colon.
Experiment [11] relates to SR leukemia.
Experiment [12] relates to SNB-78 CNS.
In experiment [13] the test system is OVCAR-4 ovarian.
In experiment [14] the test system is OVCAR-5 ovarian.
In experiment [15] the test system is A498 renal.

In the case of `O=c1c(-c2ccccc2)c2oc(c1-c1ccccc1)CS(=O)(=O)CCC2`, the TGI was 96.9 µM in experiment [1]; above 100 µM in [2]; 73 µM in [3]; above 100 µM in experiment [4]; above 100 µM in experiment [5]; 30.7 µM in experiment [6]. Besides, the TGI is 22.7 µM in [7]; above 100 µM in [8]; 58.8 µM in experiment [9]; 75.8 µM in [10]; above 100 µM in experiment [11].

`CC1CN(c2ccc(Cl)cc2)CC(C)(C)OC(=O)O1` (centres undefined): the TGI in experiment [1], in experiment [12], in experiment [13], in experiment [2], in [3] and in [4] was above 100 µM throughout. Besides, the TGI in experiment [5], in [6], in experiment [7], in [9], in [10] and in [11] was above 100 µM throughout. Besides, the TGI in experiment [14] is above 100 µM.

Turning to `CC(/C=C/C(=O)c1sc(-n2nc(-c3ccccc3)cc2-c2ccccc2)nc1C)=C\c1ccccc1`, the TGI in experiment [1], in experiment [13], in [2], in experiment [3], in experiment [4] and in experiment [5] was above 100 µM each time. In addition, the TGI in experiment [6], in experiment [7], in [9], in [15] and in experiment [11] was above 100 µM each time. In addition, the GI50 in [13], in experiment [5] and in experiment [15] was above 100 µM in each case.

With `N#CC(/C(=N\NC(=O)c1ccncc1)C(=O)Nc1ccc([N+](=O)[O-])cc1[N+](=O)[O-])c1nc(-c2ccc(Br)cc2)cs1` (centres undefined), the TGI in [1], in [12], in [13], in [2], in [3] and in experiment [4] was above 100 µM in each case. For the same compound, the TGI in [5], in experiment [6], in experiment [9], in experiment [15] and in experiment [14] was above 100 µM throughout.

On to `CC(C)(C)N1C(=O)c2ccccc2C1(O)C(F)(F)F` (centres undefined), for which the TGI in [1], in experiment [13], in experiment [2], in [3], in experiment [4] and in [5] was above 100 µM each time. Further, the TGI in experiment [7], in experiment [10], in [15], in [11] and in experiment [14] was above 100 µM throughout.

As for `COc1ccc(C2=Nn3c(nc4sc(C)c(C)c4c3=O)SC2)cc1`, the TGI in [1], in [13], in experiment [2], in experiment [3], in [4] and in [5] was above 100 µM in each case. Moreover, the TGI in experiment [7], in experiment [10], in experiment [15], in [11] and in [14] was above 100 µM each time.

For the compound `O=C1Oc2ccccc2C(=O)/C1=C/N1C(=O)/C(=C/c2ccc3c(c2)OCO3)SC1=S`, the TGI in [1] came out at 36.5 µM; in experiment [13], 47.9 µM; in experiment [2], 35.7 µM; in experiment [3], 10.9 µM; in experiment [4], 44.8 µM; in experiment [5] it was 35 µM. The TGI in experiment [7] came out at 45.2 µM; in experiment [10] it was 35.9 µM; in [15] it was 13.2 µM; in experiment [11], 31.4 µM; in experiment [14] it was 30.2 µM.

Regarding `CC(=O)NC(CCCCN(Cc1ccccc1)C(=O)NCCCl)C(=O)NCc1ccccc1` (centres undefined), the TGI in [1], in experiment [13], in experiment [2], in experiment [3], in experiment [4] and in experiment [5] was above 100 µM each time. Also, the TGI in [7], in experiment [8], in [9], in experiment [10] and in experiment [11] was above 100 µM in each case.

Consider `O=C1c2sc(-c3ccc(F)cc3)cc2-n2cccc21`, for which the TGI in [1] was 34.5 µM; in [13] it was above 100 µM; in experiment [2], 74.2 µM; in [3], above 100 µM; in experiment [4], above 100 µM; in experiment [5], 93.9 µM. Also, the TGI in experiment [7] was above 100 µM; in experiment [10] it was above 100 µM; in [15] it was 62.8 µM; in experiment [11] it was above 100 µM; in experiment [14], above 100 µM.
